{
  "source": "patent US20250288631A1",
  "about": "“PHYTOTHERAPY FORMULATION FOR SEXUAL DYSFUNCTIONS” (priority 2022, published 2025)",
  "origin": "cited, not measured here",
  "settings": "EFSA (2015)",
  "data": [
    {"smiles": "C/C=C/C=C\\CC/C=C/C(=O)NCC(C)C", "note": "[spilanthol]", "values": [
      {"measurement": "EFSA classification", "result": "class III"},
      {"measurement": "Exposure limit", "setting": "class III, 60 kg person", "result": 90, "unit": "µg/person/day"}
    ]}
  ]
}
